Data on 28 compounds can be found in patent publication US20200087258A1, “INHIBITOR OF CITRATE TRANSPORTER AND THEIR USE IN THERAPY” (Eternygen GmbH, priority 2017, published 2020).

Sequence of INDY (Q86YT5 whole entry, the tested form may be a part): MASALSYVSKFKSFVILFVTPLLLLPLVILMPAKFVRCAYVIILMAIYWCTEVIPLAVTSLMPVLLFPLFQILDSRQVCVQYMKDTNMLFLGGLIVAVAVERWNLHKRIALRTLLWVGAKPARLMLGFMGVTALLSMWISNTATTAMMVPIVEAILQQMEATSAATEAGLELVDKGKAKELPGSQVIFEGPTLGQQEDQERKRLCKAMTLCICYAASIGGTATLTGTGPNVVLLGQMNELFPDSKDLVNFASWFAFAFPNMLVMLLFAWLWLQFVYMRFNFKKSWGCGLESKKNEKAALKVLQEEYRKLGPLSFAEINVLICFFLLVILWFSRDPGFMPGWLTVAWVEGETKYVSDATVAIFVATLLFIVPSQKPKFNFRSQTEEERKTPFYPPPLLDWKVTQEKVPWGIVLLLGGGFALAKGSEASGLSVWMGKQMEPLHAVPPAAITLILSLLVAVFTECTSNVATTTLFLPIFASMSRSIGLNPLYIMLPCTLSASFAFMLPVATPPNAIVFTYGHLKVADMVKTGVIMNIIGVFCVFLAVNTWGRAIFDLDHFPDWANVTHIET

The assay has as its target INDY (Homo sapiens, UniProt Q86YT5). Description: 14C-citrate uptake in HEK293 cells overexpressing recombinant human INDY (NaCT). The assay is classed as cell-based. On the set-up: expressed in transfected cells; host or cells: HEK293. The protocol: The compound was obtained by screening of a library containing more than 50,000 lead-like compounds and fragments. The library was tested using a functional citrate uptake assay with HEK293 cells overexpressing recombinant human INDY. The following hit confirmation was conducted in the same assay system. To confirm the activity of selected compounds on the target INDY another cell assay was conducted. In this assay system citrate uptake was measured using HepG2 cells which endogenously express INDY. Furthermore selectivity of selected compounds was tested for two other transporters in different assay systems. The first transporter was the glutamate transporter GLT-1 tested in a glutamate uptake assays using HEK293 cells overexpressing recombinant human GLT-1. The second transporter was the glucose transporter GLUT1 tested in a glucose uptake assay using Huh-7 cells which endogenously express GLUT1. Compounds were considered to be selective with an at least 5-fold higher activity for INDY than for the other two transporters.
Cells were maintained in cell medium using cell culture grade flasks (CellSTACK Corning, 500 cm2 dishes or T175 depending on cell number). The selection antibiotic and G418 (800 μg/ml) was added during cultivation but not for seeding into assay plates. For splitting, cells were washed with PBS (w/o Ca2+, Mg2+, phenol red) and detached with Trypsin/EDTA. Throughout cultivation cells were kept sub-confluent. Detached cells (50,000 cells/well) were seeded in 96-well plates (white, clear bottom from Corning #655098) and incubated over night before usage in the assay. The following media were used. For HEK293 cells expressing INDY MEM (PAA)+10% FCS+1×P/S+2 mM L-Gln; for HEK293 cells expressing GLT-1 DMEM (Gibco)+10% FCS+400 µg/ml G418; for Huh7 cells DMEM (Gibco)+10% FCS+2 mM L-Gin (+1×P/S); for HepG2 cells MEM (PAA, Cat # E15-024)+10% FCS+2 mM L-Gin+1×NEAA+1 mM Na-Pyruvat
The following assay buffers for the particular uptake reaction were used. Citrate uptake buffer: 120 mM NaCl, 5.4 mM KCl, 0.8 mM MgSO4, 5 mM glucose, 1.8 mM CaCl2, 25 mM Hepes, 25 mM MES, pH 6.5. Glutamate uptake buffer: HBSS, 1 mM CaCl2, 1 mM MgCl2, 20 mM Hepes pH 7.4. Glucose uptake buffer: 25 mM Hepes+25 mM MES pH 7.4, 120 mM NaCl, 5.4 mM KCl, 1.8 mM CaCl2, 0.8 mM MgSO4.
INDY mediated citrate uptake was determined in HEK293 cells. To determine the uptake of ^14C labelled citrate into cells, HEK293 cells over-expressing human NaCT were used. Cloning of human NaCT was done in analogy as described in Birkenfeld et al. (Birkenfeld et al., 2011, Cell Metabolism 14, 184-195, 2011).
Human NaCT HEK293 cells were seeded into white clear-bottom 96-well plates (50,000/well) in the presence of 4 μg/ml Poly-D-Lysine and incubated at 37° C. for 16-24 hours. On the days of the assay the plates were washed once with assay buffer using automated washing/LS 405 Selectors, BioTek ending with a buffer volume of 40 μl. Then 5 μl of compound solution in assay buffer was added and incubated for 5-30 min at 37° C. in cell incubator, HERA cell Heraeus. Afterwards 10 μl of substrate 14C-citrate ([…]/[…] per well) were added and incubated for another 20-90 min at 37° C. in cell incubator, HERAcell. Then plates were washed twice with 200 μl ice-cold assay buffer and residual volume was discarded. For cell lysis 50 μl ice-cold NaOH (100 mM) was added and incubated for 15 minutes at RT on a plate shaker. Finally, 200 μl scintillation fluid (scintillator OptiPhase Supermix, Perkin Elmer) was added. After 15 min incubation at RT without shaking, plates were measured using a TopCount reader system (Perkin Elmer). As a positive control 10 mM citrate was applied. It is possible to use this assay also in analogy in a 384-well plate format.
The term IC50 denotes the midpoint of a concentration-inhibition curve. Consider `O=C(NCc1ccccc1C(F)(F)F)C1CCN(S(=O)(=O)/C=C/c2ccccc2)CC1` [Example 11, 1-[(E)-2-phenylethenesulfonyl]-N-{[2-(trifluoromethyl)phenyl]methyl}piperidine-4-carboxamide], for which the IC50 was above 20 µM.
Turning to `N#Cc1ccc(S(=O)(=O)N2CCC(C(=O)NCc3ccccc3F)CC2)cc1` [Example 13, 1-(4-cyanobenzenesulfonyl)-N-[(2-fluorophenyl)methyl]piperidine-4-carboxamide], the IC50 is 20.6 µM.
As to `O=C(NCc1ccc2[nH]cnc2c1)C1CCN(S(=O)(=O)/C=C/c2ccccc2)CC1` [Example 14, N-[(1H-1,3-benzodiazol-5-yl)methyl]-1-[(E)-2-phenylethenesulfonyl]piperidine-4-carboxamide], the IC50 was above 20 µM.
For the compound `O=C(NCc1ccccc1F)C1CCN(S(=O)(=O)c2ccc([N+](=O)[O-])cc2)CC1` [Example 17, N-[(2-fluorophenyl)methyl]-1-(4-nitrobenzenesulfonyl)piperidine-4-carboxamide], the IC50 is above 20 µM.
Under `CS(=O)(=O)c1ccccc1CNC(=O)C1CCN(S(=O)(=O)/C=C/c2ccccc2)CC1` [Example 18, N-[(2-methanesulfonylphenyl)methyl]-1-[(E)-2-phenylethenesulfonyl]piperidine-4-carboxamide] stands above 20 µM; under `CC(=O)Nc1ccc(S(=O)(=O)N2CCC(C(=O)NCc3ccccc3F)CC2)cc1` [Example 20, 1-(4-acetamidobenzenesulfonyl)-N-[(2-fluorophenyl)methyl]piperidine-4-carboxamide], above 20 µM; under `Cc1ccccc1CNC(=O)C1CCN(S(=O)(=O)/C=C/c2ccccc2)CC1` [Example 31, N-[(2-methylphenyl)methyl]-1-[(E)-2-phenylethenesulfonyl]piperidine-4-carboxamide], 15.2 µM.
With `O=C(NCc1ccccc1N1CCOCC1)C1CCN(S(=O)(=O)/C=C/c2ccccc2)CC1` [Example 40, N-{[2-(morpholin-4-yl)phenyl]methyl}-1-[(E)-2-phenylethenesulfonyl]piperidine-4-carboxamide] the figure was above 20 µM; with `CC(C)(C)c1ccccc1S(=O)(=O)N1CCC(C(=O)NCc2ccccc2F)CC1` [Example 42, 1-(2-tert-butylbenzenesulfonyl)-N-[(2-fluorophenyl)methyl]piperidine-4-carboxamide], above 20 µM; with `O=C(NCc1ccccc1F)C1CCN(S(=O)(=O)c2ccc(F)cc2)CC1` [Example 45, 1-(4-fluorobenzenesulfonyl)-N-[(2-fluorophenyl)methyl]piperidine-4-carboxamide], 11.8 µM.
In the case of `COc1ccc(CNC(=O)C2CCN(S(=O)(=O)/C=C/c3ccccc3)CC2)c(F)c1` [Example 48, N-[(2-fluoro-4-methoxyphenyl)methyl]-1-[(E)-2-phenylethenesulfonyl]piperidine-4-carboxamide], the IC50 is above 20 µM.
For the compound `CC(C)(C)c1ccc(S(=O)(=O)N2CC(C(=O)NCc3ccccn3)C2)cc1` [Example 51, 1-(4-tert-butylbenzenesulfonyl)-N-[(pyridin-2-yl)methyl]azetidine-3-carboxamide], the IC50 came out at 14.4 µM.
In the case of `O=C(NCc1ccccc1F)C1CN(S(=O)(=O)c2ccc(C(F)(F)F)cc2)C1` [Example 52, N-[(2-fluorophenyl)methyl]-1-[4-(trifluoromethyl)benzenesulfonyl]azetidine-3-carboxamide], the IC50 is above 20 µM.
Under `N#Cc1ccccc1CNC(=O)C1CCN(S(=O)(=O)/C=C/c2ccccc2)CC1` [Example 53, N-[(2-cyanophenyl)methyl]-1-[(E)-2-phenylethenesulfonyl]piperidine-4-carboxamide] stands 15.9 µM.
With `CC(C)Oc1ccccc1CNC(=O)C1CCN(S(=O)(=O)/C=C/c2ccccc2)CC1` [Example 54, 1-[(E)-2-phenylethenesulfonyl]-N-{[2-(propan-2-yloxy)phenyl]methyl}piperidine-4-carboxamide] the figure was above 20 µM.
Under `O=C(NCc1ccc(F)cc1)C1CCN(S(=O)(=O)/C=C/c2ccccc2)CC1` [Example 56, N-[(4-fluorophenyl)methyl]-1-[(E)-2-phenylethenesulfonyl]piperidine-4-carboxamide] stands above 20 µM.
`COc1ccc(S(=O)(=O)N2CCC(C(=O)NCc3ccccn3)CC2)c(OC)c1` [Example 61, 1-(2,4-dimethoxybenzenesulfonyl)-N-[(pyridin-2-yl)methyl]piperidine-4-carboxamide]: the IC50 was above 20 µM.
Regarding `O=C(NCc1ccccn1)C1CCN(S(=O)(=O)c2c(Cl)cccc2Cl)CC1` [Example 63, 1-(2,6-dichlorobenzenesulfonyl)-N-[(pyridin-2-yl)methyl]piperidine-4-carboxamide], the half-inhibitory concentration (IC50) is above 20 µM.
Under `CN(C)c1ccc(S(=O)(=O)N2CCC(C(=O)NCc3ccccn3)CC2)cc1` [Example 64, 1-[4-(dimethylamino)benzenesulfonyl]-N-[(pyridin-2-yl)methyl]piperidine-4-carboxamide] stands above 20 µM.
With `CN(C)c1ccc(S(=O)(=O)N2CCC(C(=O)NCc3ccccc3F)CC2)cc1` [Example 65, 1-[4-(dimethylamino)benzenesulfonyl]-N-[(2-fluorophenyl)methyl]piperidine-4-carboxamide] the figure was above 20 µM.
For `COC(=O)c1ccccc1CNC(=O)C1CCN(S(=O)(=O)/C=C/c2ccccc2)CC1` [Example 66, methyl 2-[({1-[(E)-2-phenylethenesulfonyl]piperidin-4-yl}formamido)methyl]benzoate], the IC50 is 12.9 µM.
With `O=C(NCc1ccccn1)C1CCN(S(=O)(=O)c2ccc(-c3ccccc3)cc2)CC1` [Example 68, 1-{[1,1′-biphenyl]-4-sulfonyl}-N-[(pyridin-2-yl)methyl]pipendine-4-carboxamide] the figure was 19.7 µM; with `O=C(NCc1ccccn1)C1CCN(S(=O)(=O)c2ccc(N3CCCC3)cc2)CC1` [Example 70, N-[(pyridin-2-yl)methyl]-1-[4-(pyrrolidin-1-yl)benzenesulfonyl]pipendine-4-carboxamide], above 20 µM; with `O=C(NCc1ccccn1)C1CCN(S(=O)(=O)c2ccccc2Cl)CC1` [Example 71, 1-(2-chlorobenzenesulfonyl)-N-[(pyridin-2-yl)methyl]pipendine-4-carboxamide], 14.4 µM.
`O=C(NCc1ccccc1F)C1CCN(S(=O)(=O)c2ccc(O)cc2)CC1` [Example 72, N-[(2-fluorophenyl)methyl]-1-(4-hydroxybenzenesulfonyl)pipendine-4-carboxamide]: the IC50 was above 20 µM.
Turning to `O=C(NCc1ccccn1)C1CCN(S(=O)(=O)c2cccc([N+](=O)[O-])c2)CC1` [Example 76, 1-(3-nitrobenzenesulfonyl)-N-[(pyridin-2-yl)methyl]pipendine-4-carboxamide], the IC50 was above 20 µM.
For the compound `NC(=O)c1ccc(S(=O)(=O)N2CCC(C(=O)NCc3ccccc3F)CC2)cc1` [Example 77, 1-(4-carbamoylbenzenesulfonyl)-N-[(2-fluorophenyl)methyl]pipendine-4-carboxamide], the IC50 is above 20 µM.
`NC(=O)c1ccccc1CNC(=O)C1CCN(S(=O)(=O)c2cc(Cl)cc(Cl)c2)CC1` [Example 80, N-[(2-carbamoylphenyl)methyl]-1-(3,5-dichlorobenzenesulfonyl)pipendine-4-carboxamide]: the IC50 is above 20 µM.
